Tests used:
[1] = system: HSPCs (LKS+); test: Bone marrow HSPC proliferation by EdU incorporation and flow cytometry; assay type: in vivo; conditions: 150 mg/kg oral gavage, mice
Experimental: . JCNI 2012; 104(6):476-487 (FIG. 2A). […].
Mice were then sacrificed at the indicated times (0, 12, 24, 36, or 48 hours following compound administration), and bone marrow was harvested (n=3 mice per time point), as previously described (Johnson et al. J. Clin. Invest. (2010) 120(7), 2528-2536). Four hours before the bone marrow was harvested, mice were treated with 100 μg of EdU by intraperitoneal injection (Invitrogen). Bone marrow mononuclear cells were harvested and immunophenotyped using previously described methods and percent EdU positive cells were then determined (Johnson et al. J. Clin. Invest. (2010) 120(7), 2528-2536). In brief, HSPCs were identified by expression of lineage markers (Lin−), Sca1 (S+), and c-Kit (K+).
Four hours before animals were sacrificed and the bone marrow was harvested, mice were treated with 100 μg of EdU by intraperitoneal injection. Three mice per group were sacrificed at 12 hours and the remaining three animals per group were sacrificed at 24 hours. Results are shown in FIG. 5A as the ratio of EdU positive cells for treated animals at 12 or 24 hour time points compared to control.
Further experiments were completed with Compound T examining dose response and longer periods of compound treatment. […] […].
Both compounds were administered at 150 mg/kg by oral gavage. One hour prior to harvesting bone marrow, EdU was IP injected to label cycling cells. Bone marrow was harvested at 12, 24, 36, and 48 hours after compound treatment and the percentage of EdU positive HSPC cells was determined at each time point.

[2] = system: MMTV-c-neu (Rb-positive) tumors; test: MMTV-c-neu HER2-driven (Rb-positive) luminal breast cancer mouse model; assay type: in vivo, mice
Excerpt: A HER2-driven model (Rb-positive) of breast cancer (Muller W J, Sinn E, Pattengale P K, Wallace R, Leder P. Single-step induction of mammary adenocarcinoma in transgenic mice bearing the activated c-neu oncogene. Cell 1988; 54: 105-15), that expresses c-neu (the mouse ortholog of human HER2) driven by the MMTV promoter was used in the following example. This model was chosen because previous studies in murine (Yu Q, Geng Y, Sicinski P. Specific protection against breast cancers by cyclin D1 ablation. Nature 2001; 411: 1017-21; Landis M W, Pawlyk B S, Li T, Sicinski P, Hinds P W. Cyclin D1-dependent kinase activity in murine development and mammary tumorigenesis. Cancer Cell 2006; 9: 13-22; Reddy H K, Mettus R V, Rane S G, Grana X, Litvin J, Reddy E P. Cyclin-dependent kinase 4 expression is essential for neu-induced breast tumorigenesis. Cancer Res 2005; 65: 10174-8; Yu Q, Sicinska E, Geng Y, Ahnstrom M, Zagozdzon A, Kong Y, et al. Requirement for CDK4 kinase function in breast cancer. Cancer Cell 2006; 9: 23-32.) and human HER2-positive breast cancer (An H X, Beckmann M W, Reifenberger G, Bender H G, Niederacher D. Gene amplification and overexpression of CDK4 in sporadic breast carcinomas is associated with high tumor cell proliferation. Am J Pathol 1999; 154: 113-8; Samady L, Dennis J, Budhram-Mahadeo V, Latchman DS. Activation of CDK4 gene expression in human breast cancer cells by the Brn-3b POU family transcription factor. Cancer Biol Ther 2004; 3: 317-23; Takano Y, Takenaka H, Kato Y, Masuda M, Mikami T, Saegusa M, et al. Cyclin D1 overexpression in invasive breast cancers: correlation with cyclin-dependent kinase 4 and oestrogen receptor overexpression, and lack of correlation with mitotic activity.
MMTV-neu mice were generated and observed post-lactation, with tumors observed with a median latency of approximately 25 weeks. Mice were enrolled in therapy studies when tumors reached a standard size (50-60 mm3) that permitted easy serial assessment. […] Tumor volumes were calculated by the formula, Volume=[(width)^2×length]/2. Tumor-bearing mice were euthanized at the indicated times due to predefined morbidity, tumor ulceration, or a tumor size of more than 1.5 cm in diameter.
Tumors were serially assessed weekly using caliper measurements. Therapeutic intervention began once tumors reached 40-64 mm^3. Tumor volume was calculated using the formula […]. All three compounds were administered orally via medicated diets (100 mg/kg/d). Medicated diets were administered for 28 consecutive days and then stopped. RECIST criteria were used to assess objective response rates.

[3] = system: MCF7 (breast adenocarcinoma, Rb-positive); test: Cellular proliferation assay (CellTiter-Glo), MCF7; assay type: cell-based
Experimental: The MCF7 cells were seeded in Costar (Tewksbury, Mass.) 3903 96 well tissue culture treated white walled/clear bottom plates. A nine point dose response dilution series from 10 uM to 1 nM was performed and cell viability was determined after six days of compound treatment as indicated using the CellTiter-Glo® luminescent cell viability assay (CTG; Promega, Madison, Wis., United States of America) following the manufacturer's recommendations. Plates were read on a BioTek (Winooski, Vt.) Syngergy2 multi-mode plate reader. The Relative Light Units (RLU) were plotted as a result of variable molar concentration and data was analyzed using Graphpad (LaJolla, Calif.) Prism 5 statistical software to determine the EC50 for each compound.
Cellular proliferation assays were conducted using the following cancer cell lines: MCF7 (breast adenocarcinoma—Rb-positive), ZR-75-1 (breast ductal carcinoma—Rb-positive), H69 (human small cell lung cancer—Rb-negative) cells, or A2058 (human metastatic melanoma cells—Rb-negative). These cells were seeded in Costar (Tewksbury, Mass.) […] 96 well tissue culture treated white walled/clear bottom plates. Cells were treated with the compounds of Table 1 as nine point dose response dilution series from 10 uM to 1 nM. Cells were exposed to compounds and then cell viability was determined after either four (H69) or six (MCF7, ZR75-1, A2058) days as indicated using the CellTiter-Glo® luminescent cell viability assay (CTG; Promega, Madison, Wis., United States of America) following the manufacturer's recommendations. Plates were read on BioTek (Winooski, Vt.) Syngergy2 multi-mode plate reader. The Relative Light Units (RLU) were plotted as a result of variable molar concentration and data was analyzed using Graphpad (LaJolla, Calif.) Prism 5 statistical software to determine the EC50 for each compound.

[4] = system: tHS68 cells (CDK4/6-dependent, Rb-positive); test: Cell cycle arrest (propidium iodide flow cytometry), tHS68; assay type: cell-based; conditions: 24 hours
Excerpt: To test the ability of CDK4/6 inhibitors to induce a clean G1-arrest, a cell based screening method was used consisting of two CDK4/6-dependent cell lines (tHS68 and WM2664; Rb-positive) and one CDK4/6-independent (A2058; Rb-negative) cell line. […] At the conclusion of the experiment, cells were harvested, fixed, and stained with propidium iodide (a DNA intercalator), which fluoresces strongly red (emission maximum 637 nm) when excited by 488 nm light. Samples were run on Dako Cyan flow cytometer and >10,000 events were collected for each sample. Data were analyzed using FlowJo 2.2 software developed by TreeStar, Inc.

## CN1CCN(c2ccc(Nc3ncc4cc5n(c4n3)C3(CCCCC3)CNC5=O)nc2)CC1 [T]
[1]
  EdU incorporation into HSPCs at 12 and 24 hours (FIG. 5A): reduction in EdU incorporation at 12 hours which was starting to return to normal at 24 hours
[2]; 100 mg/kg/d in chow, listed as Compound T
  tumor volume during a 28 day course of therapy: marked reduction in tumor volume
[2]; 100 mg/kg/d in chow, listed as compound T
  tumor volume during a 28 day course of therapy: marked decrease in tumor volume
[2]; 100 mg/kg/day medicated diet, 28 days, RECIST criteria
  objective response rate: 100%
[2]; 150 mg/kg/d in chow
  tumor volume during a 28 day course of therapy: marked reduction in tumor volume
[3]
  activity against MCF-7 cells compared with PD0332991 (FIG. 21): more potent activity against MCF-7 cells than PD0332991
  inhibition of cellular proliferation of MCF-7 cells (FIGS. 21-24): significant inhibition of cellular proliferation
[4]; 300 nM, tHS68
  cell cycle distribution after treatment: causes a loss of the S-phase peak
[4]; tHS68 cells, 28% at baseline
  S-phase cells at the highest concentration shown: 6%

— patent US9527857B2, “HSPC-sparing treatments for RB-positive abnormal cellular proliferation” (G1 Therapeutics, Inc., priority 2013, dated 2016)
